Numbers after ± are expanded uncertainties.
Details: 303.15 K, Liquid, Vibrating tube method

FC(C(F)(F)F)C(F)(F)F [1,1,1,2,3,3,3-heptafluoropropane]
Details | mass density [kg/m3]
8067 kPa | 1421.1 ± 1.5
8093 kPa | 1421.3 ± 1.5
8123 kPa | 1421.4 ± 1.5
8152 kPa | 1421.5 ± 1.5
8181 kPa | 1421.9 ± 1.5
8211 kPa | 1422 ± 1.5
8250 kPa | 1422.2 ± 1.5
8280 kPa | 1422.3 ± 1.5
8306 kPa | 1422.5 ± 1.5
8340 kPa | 1422.8 ± 1.5
8378 kPa | 1423 ± 1.5
8411 kPa | 1423.1 ± 1.5
8436 kPa | 1423.4 ± 1.5
8471 kPa | 1423.6 ± 1.5
8496 kPa | 1423.6 ± 1.5
8526 kPa | 1423.9 ± 1.5
8556 kPa | 1423.9 ± 1.5
8581 kPa | 1424.3 ± 1.5
8610 kPa | 1424.4 ± 1.5
8640 kPa | 1424.4 ± 1.5
8671 kPa | 1424.6 ± 1.5
8697 kPa | 1424.8 ± 1.5
8726 kPa | 1425 ± 1.5
8752 kPa | 1425.2 ± 1.5
8778 kPa | 1425.4 ± 1.5
8808 kPa | 1425.5 ± 1.5
8847 kPa | 1425.8 ± 1.5
8873 kPa | 1425.9 ± 1.5
8908 kPa | 1426.2 ± 1.5
8947 kPa | 1426.2 ± 1.5
8978 kPa | 1426.5 ± 1.5
9004 kPa | 1426.6 ± 1.5
9031 kPa | 1426.8 ± 1.5
9066 kPa | 1426.9 ± 1.5
9263 kPa | 1428.1 ± 1.5
9299 kPa | 1428.3 ± 1.5
9334 kPa | 1428.5 ± 1.5
9370 kPa | 1428.6 ± 1.5
9401 kPa | 1428.9 ± 1.5
9445 kPa | 1429.1 ± 1.5
9480 kPa | 1429.3 ± 1.5
9502 kPa | 1429.4 ± 1.5
9533 kPa | 1429.7 ± 1.5
9567 kPa | 1429.9 ± 1.5
9598 kPa | 1429.9 ± 1.5
9634 kPa | 1430.2 ± 1.5
9661 kPa | 1430.3 ± 1.5
9693 kPa | 1430.5 ± 1.5
9720 kPa | 1430.6 ± 1.5
9747 kPa | 1430.8 ± 1.5
9779 kPa | 1431.1 ± 1.5
9806 kPa | 1431.2 ± 1.5
9833 kPa | 1431.3 ± 1.5
9878 kPa | 1431.5 ± 1.5
9906 kPa | 1431.7 ± 1.5
9938 kPa | 1431.8 ± 1.5
9969 kPa | 1432.1 ± 1.5
9996 kPa | 1432.3 ± 1.5
10037 kPa | 1432.6 ± 1.5
10069 kPa | 1432.6 ± 1.5
10110 kPa | 1432.8 ± 1.5
10137 kPa | 1433 ± 1.5
10174 kPa | 1433.2 ± 1.5
10201 kPa | 1433.4 ± 1.5
10228 kPa | 1433.5 ± 1.5
10255 kPa | 1433.7 ± 1.5
10278 kPa | 1433.7 ± 1.5
10311 kPa | 1434 ± 1.5
10343 kPa | 1434 ± 1.5
10379 kPa | 1434.3 ± 1.5
10406 kPa | 1434.4 ± 1.5
10434 kPa | 1434.6 ± 1.5
10466 kPa | 1434.8 ± 1.5
10494 kPa | 1434.9 ± 1.5
10531 kPa | 1435.1 ± 1.5
10559 kPa | 1435.3 ± 1.5
10596 kPa | 1435.4 ± 1.5
10629 kPa | 1435.8 ± 1.5
10662 kPa | 1436 ± 1.5
10695 kPa | 1436 ± 1.5
10725 kPa | 1436.2 ± 1.5
10753 kPa | 1436.4 ± 1.5
10791 kPa | 1436.6 ± 1.5
10824 kPa | 1436.9 ± 1.5
10960 kPa | 1437.4 ± 1.5
11032 kPa | 1437.7 ± 1.5
11066 kPa | 1438 ± 1.5
11105 kPa | 1438.2 ± 1.5
11143 kPa | 1438.4 ± 1.5
11183 kPa | 1438.6 ± 1.5
11218 kPa | 1438.8 ± 1.5
11258 kPa | 1439.1 ± 1.6
11297 kPa | 1439.2 ± 1.6
11332 kPa | 1439.3 ± 1.6
11372 kPa | 1439.7 ± 1.6
11402 kPa | 1439.8 ± 1.6
11442 kPa | 1439.8 ± 1.6
11473 kPa | 1440.1 ± 1.6
11525 kPa | 1440.4 ± 1.6
11555 kPa | 1440.6 ± 1.6
11599 kPa | 1440.8 ± 1.6
11633 kPa | 1441 ± 1.6
11668 kPa | 1441.2 ± 1.6
11703 kPa | 1441.2 ± 1.6
11734 kPa | 1441.6 ± 1.6
11770 kPa | 1441.7 ± 1.6
11800 kPa | 1442 ± 1.6
11840 kPa | 1442.2 ± 1.6
11875 kPa | 1442.2 ± 1.6
11915 kPa | 1442.5 ± 1.6
11952 kPa | 1442.7 ± 1.6
11987 kPa | 1442.8 ± 1.6
12022 kPa | 1443 ± 1.6
12052 kPa | 1443.3 ± 1.6
12404 kPa | 1444.9 ± 1.6
12445 kPa | 1445.1 ± 1.6
12481 kPa | 1445.4 ± 1.6
12527 kPa | 1445.6 ± 1.6
12558 kPa | 1445.7 ± 1.6
12595 kPa | 1446 ± 1.6
12631 kPa | 1446.1 ± 1.6
12681 kPa | 1446.4 ± 1.6
12722 kPa | 1446.5 ± 1.6
12752 kPa | 1446.7 ± 1.6
12793 kPa | 1447 ± 1.6
12830 kPa | 1447.2 ± 1.6
12877 kPa | 1447.5 ± 1.6
12924 kPa | 1447.5 ± 1.6
12965 kPa | 1447.8 ± 1.6
12995 kPa | 1447.8 ± 1.6
13030 kPa | 1448.2 ± 1.6
13077 kPa | 1448.3 ± 1.6
13108 kPa | 1448.5 ± 1.6
13150 kPa | 1448.8 ± 1.6
13186 kPa | 1448.9 ± 1.6
13229 kPa | 1449.2 ± 1.6
13275 kPa | 1449.4 ± 1.6
13317 kPa | 1449.6 ± 1.6
13364 kPa | 1449.7 ± 1.6
13400 kPa | 1449.9 ± 1.6
13432 kPa | 1450.1 ± 1.6
13468 kPa | 1450.3 ± 1.6
13516 kPa | 1450.6 ± 1.6
13547 kPa | 1450.6 ± 1.6
13593 kPa | 1450.8 ± 1.6
13620 kPa | 1451.1 ± 1.6
13652 kPa | 1451.1 ± 1.6
13689 kPa | 1451.3 ± 1.6
13730 kPa | 1451.6 ± 1.6
13762 kPa | 1451.7 ± 1.6
13794 kPa | 1451.9 ± 1.6
13826 kPa | 1452 ± 1.6
13867 kPa | 1452.1 ± 1.6
13900 kPa | 1452.4 ± 1.6
13937 kPa | 1452.6 ± 1.6
13966 kPa | 1452.7 ± 1.6
14003 kPa | 1452.9 ± 1.6
14032 kPa | 1453.1 ± 1.6
14069 kPa | 1453.3 ± 1.6
14113 kPa | 1453.4 ± 1.6
14146 kPa | 1453.5 ± 1.6
14189 kPa | 1453.8 ± 1.6
14223 kPa | 1454.1 ± 1.6
14261 kPa | 1454.1 ± 1.6
14289 kPa | 1454.2 ± 1.6
14322 kPa | 1454.4 ± 1.6
14355 kPa | 1454.7 ± 1.6
14388 kPa | 1454.9 ± 1.6
14416 kPa | 1455 ± 1.6
14450 kPa | 1455 ± 1.6
14493 kPa | 1455 ± 1.6
14521 kPa | 1455.4 ± 1.6
14555 kPa | 1455.5 ± 1.6
14875 kPa | 1457.1 ± 1.6
14909 kPa | 1457.2 ± 1.6
14938 kPa | 1457.4 ± 1.6
14981 kPa | 1457.7 ± 1.6
15024 kPa | 1457.9 ± 1.6
15062 kPa | 1457.8 ± 1.6
15091 kPa | 1458 ± 1.6
15121 kPa | 1458.3 ± 1.6
15159 kPa | 1458.3 ± 1.6
15193 kPa | 1458.5 ± 1.6
15222 kPa | 1458.7 ± 1.6
15252 kPa | 1458.8 ± 1.6
15283 kPa | 1459 ± 1.6
15317 kPa | 1459.2 ± 1.6
15351 kPa | 1459.2 ± 1.6
15389 kPa | 1459.5 ± 1.6
15422 kPa | 1459.6 ± 1.6
15461 kPa | 1459.8 ± 1.6
15500 kPa | 1459.9 ± 1.6
15540 kPa | 1460.2 ± 1.6
15578 kPa | 1460.3 ± 1.6
15623 kPa | 1460.4 ± 1.6
15662 kPa | 1460.6 ± 1.6
15692 kPa | 1460.8 ± 1.6
15721 kPa | 1461.1 ± 1.6
15751 kPa | 1461.1 ± 1.6
15780 kPa | 1461.1 ± 1.6
15805 kPa | 1461.3 ± 1.6
15840 kPa | 1461.4 ± 1.6
15879 kPa | 1461.7 ± 1.6
15914 kPa | 1461.8 ± 1.6
15948 kPa | 1462 ± 1.6
